biological target: T1, Arginase (ARG1 enzyme) (Homo sapiens, UniProt P05089); experiment: Arginase Thioornithine Generating Assay (TOGA); format: biochemical; settings: 1.88 nM arginase, thioarginine substrate, fluorescence readout
T1 construct: made in house; host or cells: Escherichia coli
T1 sequence (P05089 1-322): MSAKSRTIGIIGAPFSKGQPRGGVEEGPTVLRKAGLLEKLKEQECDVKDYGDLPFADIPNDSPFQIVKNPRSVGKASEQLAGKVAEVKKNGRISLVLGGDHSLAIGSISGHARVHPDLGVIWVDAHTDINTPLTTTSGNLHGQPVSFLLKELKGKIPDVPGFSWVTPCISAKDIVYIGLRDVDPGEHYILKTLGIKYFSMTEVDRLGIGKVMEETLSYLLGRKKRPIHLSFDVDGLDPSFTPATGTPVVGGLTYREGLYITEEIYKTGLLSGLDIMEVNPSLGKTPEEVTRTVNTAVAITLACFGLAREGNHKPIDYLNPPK
Protocol: Arginase Thioornithine Generating Assay (TOGA)
Compounds were serially diluted in ten 3-fold steps in DMSO starting from 10 mM DMSO stocks. Compound dilutions or DMSO alone were then dispensed from the dilution plate into a Greiner black 384-well assay plate (catalog #781086) using an Echo 555 acoustic liquid handler (Labcyte).
Arginase protein was recombinantly expressed in Escherichia coli. Purified protein was then diluted in assay buffer (50 mM Tris pH 7.5, 50 mM NaCl, 1 mM manganese chloride, 0.05% bovine serum albumin to obtain a final Arginase concentration of 1.88 nM. Arginase solution (20 μL) or buffer alone (20 μL) were dispensed to wells of the assay plate using a BioRAPTR liquid dispenser (Beckman Coulter). Assay plates containing compound and ARG1 enzyme were incubated at room temperature for 30 minutes. Afterwards, 5 μL of 2.5 mM thioarginine (Cayman Chemicals) in assay buffer were added to each well of the assay plate using a BioRAPTR liquid dispenser. Plates were incubated at room temperature for 60 minutes and reactions were quenched by addition of 15 μL of […] 7-Diethylamine-3-(4-maleimidophenyl)-4-methylcoumarin (Sigma Chemical) in 70% ethanol. Plates were briefly shaken to mix and the fluorescence was measured in an Spectramax plate reader (Molecular Devices) with a 410 nm excitation wavelength and an 490 nm emission wavelength.
Potencies were calculated by […] to the four parameter logistic IC50 equation.

| SMILES | IC50 [nM] |
| --- | --- |
| NCC1(C(=O)O)CCC(CCB(O)O)C1 (mixture of isomers) [Example 95, 1-(aminomethyl)-3-(2-boronoethyl)cyclopentane-1-carboxylic acid] | > 10000 |
| NC[C@]1(C(=O)O)NCC[C@H]1CCCB(O)O (relative stereo) [Example 57A, 2-(aminomethyl)-3-(3-boronopropyl)pyrrolidine-2-carboxylic acid] | 112 |
| O=C(O)[C@@H]1NCCC[C@@H]1CCCB(O)O (single isomer, unassigned) [Example 1A] | 3660 |
| O=C(O)[C@H]1NCCC[C@H]1CCCB(O)O (single isomer, unassigned) [Example 1B] | 377 |
| O=C(O)[C@H]1NCCC[C@@H]1CCCB(O)O (single isomer, unassigned) [Example 1D] | 22800 |
| O=C(O)[C@H]1NCC[C@H]1CCCB(O)O (single isomer, unassigned) [Example 9A] | 18 |
| O=C(O)C1NCC[C@@H]1CCCB(O)O (single isomer, unassigned) [Example 9B] | 8040 |
| O=C(O)[C@H]1NC[C@@H](O)[C@@H]1CCCB(O)O (single isomer, unassigned) [Example 20A] | 475 |
| O=C(O)C1CNCC1CCCB(O)O (single isomer, unassigned) [Example 21A, 4-[3-(dihydroxyboranyl)propyl]pyrrolidine-3-carboxylic acid] | > 10000 |
| O=C(O)C1CNCC1CCCB(O)O (single isomer, unassigned) [Example 21B, 4-[3-(dihydroxyboranyl)propyl]pyrrolidine-3-carboxylic acid] | 602 |
| O=C(O)C1CNCC1CCCB(O)O (single isomer, unassigned) [Example 21C, 4-[3-(dihydroxyboranyl)propyl]pyrrolidine-3-carboxylic acid] | > 10000 |
| O=C(O)C1CNCC1CCCB(O)O (single isomer, unassigned) [Example 21D, 4-[3-(dihydroxyboranyl)propyl]pyrrolidine-3-carboxylic acid] | 1520 |
| NC1CN[C@H](C(=O)O)C1CCCB(O)O (single isomer, unassigned) [Example 33A] | > 10000 |
| NC1CN[C@H](C(=O)O)C1CCCB(O)O (single isomer, unassigned) [Example 33B] | > 10000 |
| NC[C@]1(C(=O)O)NCC[C@H]1CCCB(O)O (single isomer, unassigned) [Example 57B] | 5710 |
| O=C(O)[C@]1(CO)NCC[C@H]1CCCB(O)O (single isomer, unassigned) [Example 59B] | 133 |
| NC1(C(=O)O)CNCC1(CO)CCCB(O)O (single isomer, unassigned) [Example 94A, 3-amino-4-(3-boronopropyl)-4-(hydroxymethyl)pyrrolidine-3-carboxylic acid] | 3080 |
| NC1(C(=O)O)CNCC1(CO)CCCB(O)O (single isomer, unassigned) [Example 94B] | 940 |
| O=C(O)C1NCCCC1CCCB(O)O (stereo not drawn) [Example 1, 3-[3-(dihydroxyboranyl)propyl]piperidinyl-2-carboxylic acid] | 660 |
| O=C(O)[C@@H]1NCCC[C@H]1CCCB(O)O [Example 1C, (2R,3R)-3-[3-(dihydroxyborany)propy]piperidinyl-2-carboxylic acid] | 83300 |
| O=C(O)C1(CCN2CCCCC2)NCCCC1CCCB(O)O (stereo not drawn) [Example 2, 3-[3-(dihydroxyboranyl)propyl]-2-[2-(piperidin-1-yl)ethyl]piperidinyl-2-carboxylic acid] | 396 |

| SMILES | IC50 [nM] |
| --- | --- |
| O=C(O)C1NCCCC1OCCB(O)O (stereo not drawn) [Example 3, 3-[2-(dihydroxyboranyl)ethoxy]piperidinyl-2-carboxylic acid] | > 10000 |
| O=C(O)C1CC(CCB(O)O)CCN1 (stereo not drawn) [Example 4, 4-[2-(dihydroxyboranyl)ethyl]piperidinyl-2-carboxylic acid] | 19800 |
| O=C(O)C1(CCN2CCCCC2)CC(CCB(O)O)CCN1 (stereo not drawn) [Example 5, 4-[2-(dihydroxyboranyl)ethyl]-2-[2-(piperidin-1-yl)ethyl]piperidinyl-2-carboxylic acid] | 1330 |
| O=C(O)C1CNCCC1CCCB(O)O (stereo not drawn) [Example 6, 4-[3-(dihydroxyboranyl)propyl]piperidinyl-3-carboxylic acid] | 57500 |
| O=C(O)C1NCCNC1CCCB(O)O (stereo not drawn) [Example 7, 3-[3-(dihydroxyboranyl)propyl]piperazine-2-carboxylic acid] | 99000 |
| O=C(O)[C@H]1NC[C@@H]1CCCB(O)O [Example 8A, (2S,3S)-3-[3-(dihydroxyboranyl)propyl]azetidine-2-carboxylic acid] | 340 |
| O=C(O)[C@H]1NC[C@H]1CCCB(O)O [Example 8B, (2S,3R)-3-[3-(dihydroxyboranyl)propyl]azetidine-2-carboxylic acid] | 447 |
| O=C(O)[C@H]1NCCC1CCCB(O)O (stereo partly drawn) [Example 9, 3-[3-(dihydroxyboranyl)propyl]-L-proline] | 113 |
| O=C(O)C1C(CCCB(O)O)CCN1CCN1CCCCC1 (stereo not drawn) [Example 10, 3-(3-boronopropyl)-1-(2-(piperidin-1-yl)ethyl)pyrrolidine-2-carboxylic acid] | 12900 |
| O=C(O)C1(CCN2CCCCC2)NCCC1CCCB(O)O (stereo not drawn) [Example 11, 3-(3-boronopropyl)-2-(2-(piperidin-1-yl)ethyl)pyrrolidine-2-carboxylic acid] | 84 |
| OCC1NCCC1CCCB(O)O (stereo not drawn) [Example 12, {3-[2-(hydroxymethyl)pyrrolidin-3-yl]propyl}boronic acid] | 3810 |
| CC1(C)[C@H]2C[C@@H]3OB(CCC[C@@H]4CCN[C@@H]4C(=O)O)O[C@]3(C)[C@@H]1C2 [Example 13, (3R)-3-{3-[(3aR,4R,6R,7aS)-3a,5,5-trimethylhexahydro-4,6-methano-1,3,2-benzodioxaborol-2-yl]propyl}-L-proline] | 30 |
| C[C@@]1(CCCB(O)O)CCN[C@@H]1C(=O)O [Example 14, (3R)-3-[3-(dihydroxyboranyl)propyl]-3-methyl-L-proline] | 16 |
| O=C(O)[C@@H]1NCC[C@H]1CCCB(O)O [Example 15A, (3R)-3-[3-(dihydroxyboranyl)propyl]-D-proline] | > 10000 |
| O=C(O)[C@H]1NCC[C@@H]1CCCB(O)O [Example 15B, (3S)-3-[3-(dihydroxyboranyl)propyl]-L-proline] | 413 |
| C[C@]1(C(=O)O)NCC[C@H]1CCCB(O)O [Example 16A, (3R)-3-[3-(dihydroxyboranyl)propyl]-2-methyl-L-proline] | 70 |
| C[C@@]1(C(=O)O)NCC[C@@H]1CCCB(O)O [Example 16B, (3S)-3-[3-(dihydroxyboranyl)propyl]-2-methyl-D-proline] | 2260 |
| C[C@@]1(C(=O)O)NCC[C@H]1CCCB(O)O [Example 16C, (3R)-3-[3-(dihydroxyboranyl)propyl]-2-methyl-D-proline] | 1450 |
| CC1CC(CCCB(O)O)[C@@H](C(=O)O)N1 (stereo partly drawn) [Example 17, 3-[3-(dihydroxyboranyl)propyl]-5-methylproline] | > 10000 |
| O=C(O)[C@@H]1CC(CCB(O)O)CN1 (stereo partly drawn) [Example 18, 4-[2-(dihydroxyboranyl)ethyl]proline] | 8730 |
| O=C(O)[C@]1(CCN2CCCCC2)CC(CCB(O)O)CN1 (stereo partly drawn) [Example 19, 4-[2-(dihydroxyboranyl)ethyl]-2-[2-(piperidin-1-yl)ethyl]proline] | 5370 |
